The values that follow come from patent US20030008845A1, “Conjugated nonadecadienoic acid compositions” (priority 2001, published 2003).

The subject of assay [1] is 3T3-L1 adipocytes. Briefly: cellular triacylglycerol in 3T3-L1 adipocytes. Format: cell-based. The source says:
(§1) CNA was synthesized from NA (purchased from Nu-Chek Corp., Elysian, Minn.), using the method described in Park, Y. et al., Lipids 34 (1999) 235-241 for producing CLA from linoleic acid; the CNA product synthesized contained 97.3% CNA (c10, t12, 33.4%; t11, c13, 32.9%; t10, t12/t11, t13, 23.4%; other isomers, 7.6%) with the remainder as unreacted NA. CLA was synthesized as described by Park, et al., supra; the CLA product synthesized contained 97.8% CLA (c9, t11/t9, c11, 45.7%; t10, c12, 47.6%; t9, t11/t10, t12, 1.7%; others, 2.8%) with the remainder as unreacted linoleic acid.
(§2) Cultured cells were treated with fatty acid-albumin complexes for 2 days, beginning at day 6 post-differentiation. Data were analyzed as log value with a two-way ANOVA using fatty acid (as treatments) and experiment. If the interaction between treatment and experiment was significant, this interaction was used as the error term. Additional experimental details were as described in Park, et al., supra.
(§3) Treatment values indicate the concentration of test materials (μM); all treatment groups included albumin at 100 μM. Reported values are mean±S.E. (n=8, collected from two independent experiments). […] CNA inhibited LPL activity in cultured 3T3-L1 adipocytes (FIG. 1A). In addition, CNA enhanced glycerol release (FIG. 1B) and reduced intracellular triacylglycerol (FIG. 1C) and glycerol (FIG. 1D) in the same cells. […]

Assay [2] has as its system 3T3-L1 adipocytes. Briefly: glycerol release in 3T3-L1 adipocytes. Format: cell-based.
Description: as §1, §2, §3

In assay [3] the test system is 3T3-L1 adipocytes. Briefly: cellular glycerol in 3T3-L1 adipocytes. It is filed as cell-based.
Description: as §1, §2, §3

A further assay concerns the target T1, lipoprotein lipase (LPL) (Mus musculus, UniProt P11152).
T1 construct: endogenous in cells; host or cells: 3T3-L1 adipocytes
T1 sequence (P11152 28-474): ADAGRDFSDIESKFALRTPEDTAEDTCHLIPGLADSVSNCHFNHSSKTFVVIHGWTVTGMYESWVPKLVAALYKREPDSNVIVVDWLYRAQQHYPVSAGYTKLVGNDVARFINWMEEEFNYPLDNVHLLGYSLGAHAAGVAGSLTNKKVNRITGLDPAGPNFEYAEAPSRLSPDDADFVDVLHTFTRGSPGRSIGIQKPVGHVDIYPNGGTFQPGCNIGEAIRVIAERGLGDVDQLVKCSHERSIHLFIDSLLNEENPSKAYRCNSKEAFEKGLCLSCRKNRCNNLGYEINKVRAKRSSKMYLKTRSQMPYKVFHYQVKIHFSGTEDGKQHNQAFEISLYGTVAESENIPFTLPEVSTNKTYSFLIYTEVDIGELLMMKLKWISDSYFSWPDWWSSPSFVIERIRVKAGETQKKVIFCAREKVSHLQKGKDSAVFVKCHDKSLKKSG
Briefly: heparin-releasable LPL activity in 3T3-L1 adipocytes. Format: cell-based.
Description: as §1, §2, §3

For assay [4], the system named is ADP-induced whole blood platelet aggregation. Briefly: ADP-induced whole blood platelet aggregation. Format: cell-based, guinea pigs. The note with it: guinea pig heparinized whole blood, ADP 10 μM, 2 min preincubation (FIG. 3). How it is done:
(§4) Female guinea pigs and diets were purchased from Harlan Teklad (Madison, Wis). Whole Blood Aggregometer, collagen and ADP were purchased from Chrono-log Corp. (Havertown, Pa.). All ELISA kits were purchased from Cayman Chemical (Ann Arbor, Mich.).
(§5) Whole blood platelet aggregation: Guinea Pigs were anesthetized with a combination of ketamine (35 mg/kg) and xylazine (10 mg/kg) by subcutaneous administration. Heparinized blood (20 unit/ml) was obtained by cardiac puncture. Within 5-10 minutes, the blood (1.0 ml) was preheated at 37° C. and then incubated with free fatty acid or DMSO (control) for 2 minutes. Collagen (4 μg/ml) or ADP (10 μM) was next added to the blood to start the platelet aggregation process. Platelet aggregation was measured using an Aggregometer.

The target of another assay is T2, ovine cyclooxygenase-1 (Ovis aries, UniProt P05979).
T2 sequence (P05979 25-600): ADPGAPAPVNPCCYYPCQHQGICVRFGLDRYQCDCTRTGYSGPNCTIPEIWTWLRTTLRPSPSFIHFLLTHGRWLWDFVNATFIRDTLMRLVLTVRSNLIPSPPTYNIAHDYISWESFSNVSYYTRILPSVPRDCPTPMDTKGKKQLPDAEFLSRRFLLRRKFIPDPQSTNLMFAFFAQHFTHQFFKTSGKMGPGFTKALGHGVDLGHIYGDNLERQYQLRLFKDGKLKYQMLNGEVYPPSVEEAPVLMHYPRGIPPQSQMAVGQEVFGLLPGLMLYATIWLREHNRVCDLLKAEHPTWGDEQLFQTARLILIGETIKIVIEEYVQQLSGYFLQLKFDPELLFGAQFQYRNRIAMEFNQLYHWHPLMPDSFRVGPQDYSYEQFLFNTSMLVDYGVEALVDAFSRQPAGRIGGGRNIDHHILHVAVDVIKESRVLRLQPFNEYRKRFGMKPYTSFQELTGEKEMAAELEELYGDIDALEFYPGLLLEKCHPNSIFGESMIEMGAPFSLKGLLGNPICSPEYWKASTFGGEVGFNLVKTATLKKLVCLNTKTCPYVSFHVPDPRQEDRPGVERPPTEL
Briefly: ovine COX-1 inhibition (total prostanoids by ELISA). Format: biochemical. Conditions: pure ovine COX-1, 5 min co-incubation, 37° C. (FIG. 5). As for the experimental part: (§6) Determination of thromboxane B2 level by ELISA: After the whole blood platelet aggregation, the collagen-stimulated blood was centrifuged for plasma and stored at −80° C. The plasma thromboxane level was determined by ELISA according to the manufacturer's instructions. Inhibitory effects on ovine COX-1 and COX-2: COX-1 or COX-2, heme and reaction buffer were pre-incubated under 37° C. CNA or DMSO (control) was added to the system and co-incubated for 5 minutes. Arachidonic acid was added and the reaction was maintained at 37° C. for 2 minutes. The catalysis reaction was terminated by adding HCL. Total prostanoids were measured by ELISA according to manufacturer's instructions.
(ELISA stands for enzyme-linked immunosorbent assay.)

For a further assay, the target named is T3, ovine cyclooxygenase-2 (Ovis aries, UniProt P79208).
T3 sequence (P79208 17-603): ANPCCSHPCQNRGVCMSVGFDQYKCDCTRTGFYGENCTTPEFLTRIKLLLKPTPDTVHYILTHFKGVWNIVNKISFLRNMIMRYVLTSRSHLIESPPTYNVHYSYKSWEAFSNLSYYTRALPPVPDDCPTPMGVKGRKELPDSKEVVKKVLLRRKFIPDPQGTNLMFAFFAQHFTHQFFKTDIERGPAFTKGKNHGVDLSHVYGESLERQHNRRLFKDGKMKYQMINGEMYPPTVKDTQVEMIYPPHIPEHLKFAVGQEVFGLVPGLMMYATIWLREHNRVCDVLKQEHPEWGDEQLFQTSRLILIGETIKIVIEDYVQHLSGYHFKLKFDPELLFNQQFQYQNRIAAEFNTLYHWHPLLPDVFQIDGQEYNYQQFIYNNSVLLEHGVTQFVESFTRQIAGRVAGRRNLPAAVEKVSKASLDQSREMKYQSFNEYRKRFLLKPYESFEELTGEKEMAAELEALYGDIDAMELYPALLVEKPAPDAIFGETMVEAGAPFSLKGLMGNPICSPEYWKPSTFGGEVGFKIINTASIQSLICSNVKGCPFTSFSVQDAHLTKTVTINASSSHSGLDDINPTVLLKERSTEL
Briefly: ovine COX-2 inhibition (total prostanoids by ELISA). Format: biochemical. The note with it: pure ovine COX-2, 5 min co-incubation, 37° C. (FIG. 6). As for the experimental part:
as §6

A further assay deals with thromboxane B2. Briefly: thromboxane B2 level in collagen-stimulated blood by ELISA. Format: cell-based, guinea pigs. Conditions: collagen-stimulated guinea pig blood, plasma ELISA (FIG. 4). How it is done: as §4, §6
Assay [5] is described as follows: Effects of CNA and CLA on body composition (diet feeding). Format: in vivo, mice. The note with it: 0.3% in diet, 2 weeks; for Body weight gain per animal: female ICR mice. The source says: Female ICR mice (4-week-old) and semi-purified diets (TD94060, 99% basal mix) were purchased from Harlan Sprague Dawley (Madison, Wis.) and Harlan Teklad (Madison, Wis.), respectively. CLA was obtained from Natural Lipids Ltd AS, Hovdebygda, Norway; its composition was 88.7% CLA (c9, t11/t9, c11, 41.9%; t10, c12, 43.5%; t9, t11/10, t12, 1.5%; others, 1.8%) with the remainder as oleic acid, 5.6%; palmitic acid, 1.4%; and linoleic acid, 0.5%. CNA was kindly provided by the US Food and Drug Administration; it was 98.6% CNA (c10, t12, 42.3%; t11, c13, 48.0%; t10, t12/t11, t13, 5.1%; others, 3.2%) with the remainder as unreacted NA. CLA or CNA was added to diets at the expense of corn oil to maintain 5.5% fat. Diet was stored at −20° C. until use. Mice were housed individually in a windowless room with a 12-h light-dark cycle in strict accordance to guidelines established by the Research Animal Resources Center of University of Wisconsin-Madison. Diet and water, available ad libitum, were freshly provided three times per week.
After a 5 day adaptation period, mice were randomly separated into 3 groups and fed control diet, diet supplemented with 0.3% CLA, or diet supplemented with 0.3% CNA for 2 weeks. 0.3% of diet CLA is a sub-optimal dose for CLA's effects on body composition.
Results are mean±S.E. (n=6).

Assay [6] has as its system collagen-induced whole blood platelet aggregation. Briefly: collagen-induced whole blood platelet aggregation. Format: cell-based, guinea pigs. The note with it: guinea pig heparinized whole blood, collagen 4 μg/ml, 2 min preincubation (FIG. 2). As for the experimental part: as §4, §5
Assay [7] concerns lipopolysaccharide-stimulated macrophages. Briefly: PGE2 released from LPS-stimulated macrophages. Format: cell-based. Conditions: macrophages incubated 24 hours, then 100 ng/ml LPS 8 hours; about 3000 pg/ml without CNA (FIG. 7). As for the experimental part:
As a further indication of the ability of CNA to inhibit COX enzymes, FIG. 7 depicts the inhibition of PGE2 released from stimulated macrophages in the presence of varying amounts of CNA. Confluent macrophages were incubated with CNA or linoleic acid (LA; control) at the concentrations shown for 24 hours in 0.5% fetal bovine serum then were stimulated with 100 ng/ml lipopolysaccharide (LPS) for 8 hours. The level of PGE2 in the medium was determined by ELISA assay.

On to `CCCCC/C=C\C/C=C\CCCCCCCCC(=O)O` [NA, c10, c13 nonadecadienoic acid, reference compound], for which the intracellular triacylglycerol entry in the assay on 3T3-L1 adipocytes [1] (at 50 or 100 μM) was “ineffective”. Further, the glycerol release entry in the assay on 3T3-L1 adipocytes [2] (at 50 or 100 μM) is “ineffective”. Besides, the intracellular glycerol entry with 3T3-L1 adipocytes [3] (at 50 or 100 μM) is “ineffective”. Further, at lipoprotein lipase (LPL) (3T3-L1 adipocytes, at 50 or 100 μM), the LPL activity entry is given as “ineffective”.

conjugated nonadecadienoic acid [CNA]: the intracellular triacylglycerol entry in the assay on 3T3-L1 adipocytes [1] (2 days, albumin 100 μM (FIG. 1C)) is “reduced”. The ADP-stimulated platelet aggregation entry in assay [4] was “inhibited”. The COX-1 activity entry on ovine cyclooxygenase-1 was “inhibited”. Besides, on ovine cyclooxygenase-2, the COX-2 activity result is “inhibited”. Besides, in the assay with thromboxane B2, the “thromboxane B2 level” value is “reduced”. Moreover, in the assay with 3T3-L1 adipocytes [2] (2 days, albumin 100 μM (FIG. 1B)), the glycerol release result is “enhanced”. For the same compound, in the assay with 3T3-L1 adipocytes [3] (2 days, albumin 100 μM (FIG. 1D)), the intracellular glycerol result is given as “reduced”. Moreover, the “Body weight gain per animal” value in assay [5] turned out to be 0.2 g. Further, in assay [5] (mice, in words), the “amount of whole body water, protein and ash” value is recorded as “enhanced”; the “body fat mass gain” value is listed as “reduced”. Further, in assay [6], the collagen-stimulated platelet aggregation entry is on record as “inhibited”. Further, in assay [7], the “level of PGE2 in the medium” value is “less than 1000 pg/ml”. For the same compound, the LPL activity entry at lipoprotein lipase (LPL) (cultured 3T3-L1 adipocytes, fatty acid-albumin complexes 2 days, albumin 100 μM (FIG. 1A)) is “inhibited”.

As for “Conjugated linoleic acid [CLA, reference compound]”, in assay [5], the “Body weight gain per animal” value amounted to 1.3 g.
